The record followed here is PubChem BioAssay AID1259407 (Chemical Carcinogenesis Research Information System (CCRIS), 2018).

This series deals with CCRIS mutagenicity, Ames/micronucleus/aberration tests. Put plainly: CCRIS mutagenicity studies.
[1] abbreviates: Test System: AMES SALMONELLA TYPHIMURIUM, Strain/Indicator: TA98, Metabolic Activation: NONE, Method: PREINCUBATION
Setting [2] is: Test System: AMES SALMONELLA TYPHIMURIUM, Strain/Indicator: TA100, Metabolic Activation: NONE, Method: PREINCUBATION
Setting [3] is: Test System: AMES SALMONELLA TYPHIMURIUM, Strain/Indicator: TA1535, Metabolic Activation: NONE, Method: PREINCUBATION
[4] abbreviates: Test System: AMES SALMONELLA TYPHIMURIUM, Strain/Indicator: TA1537, Metabolic Activation: NONE, Method: PREINCUBATION
The mark [5] stands for this setting: Test System: AMES SALMONELLA TYPHIMURIUM, Strain/Indicator: TA98, Metabolic Activation: NONE, Method: STANDARD PLATE.
Where [6] appears, read: Test System: AMES SALMONELLA TYPHIMURIUM, Strain/Indicator: TA98, Metabolic Activation: S-9, Method: STANDARD PLATE.
Setting [7] is: Test System: AMES SALMONELLA TYPHIMURIUM, Strain/Indicator: TA100, Metabolic Activation: NONE, Method: STANDARD PLATE.
[8] abbreviates: Test System: AMES SALMONELLA TYPHIMURIUM, Strain/Indicator: TA100, Metabolic Activation: S-9, Method: STANDARD PLATE.

Calls of active or inactive are those of the source. The rule behind the calls is not given here.

Turning to `CC12CCC(CC1=O)C2(C)C` (stereo unspecified) (tested in a mixture with another compound), the mutagenic call runs as follows: (End Point: IN VITRO CHROMOSOMAL ABERRATIONS, Test System: SYRIAN HAMSTER EMBRYO (SHE) CELLS, Metabolic Activation: NONE) “active; positive (structural changes)”; (End Point: In vitro chromosomal aberrations, Test System: D824 human dental pulp cells, Metabolic Activation: Rat, Liver, Postmitochondrial supernate (5%)) “inactive; negative”.
For the molecule `CC(Cl)CCCC(Cl)CCCC(Cl)CCCC(Cl)CCCC(Cl)CCCC(Cl)CCCl` (stereo unspecified), the mutagenic call runs as follows: (End Point: IN VITRO CHROMOSOMAL ABERRATIONS, Test System: CHO CELLS, Metabolic Activation: NONE) “active; positive; oily droplets formed at all doses”; (End Point: IN VITRO CHROMOSOMAL ABERRATIONS, Test System: CHO CELLS, Metabolic Activation: RAT, LIVER, S-9, AROCLOR 1254) “inactive; negative; oily droplets formed at all doses”; (Test System: AMES SALMONELLA TYPHIMURIUM, Strain/Indicator: TA98, Metabolic Activation: HAMSTER, LIVER, S-9, AROCLOR 1254, Method: PREINCUBATION) “inactive; negative”; under setting [1], “inactive; negative”; (Test System: AMES SALMONELLA TYPHIMURIUM, Strain/Indicator: TA98, Metabolic Activation: RAT, LIVER, S-9, AROCLOR 1254, Method: PREINCUBATION) “inactive; negative”; (Test System: AMES SALMONELLA TYPHIMURIUM, Strain/Indicator: TA100, Metabolic Activation: HAMSTER, LIVER, S-9, AROCLOR 1254, Method: PREINCUBATION) “inactive; negative”. The mutagenic call under setting [2] is “inactive; negative”; the mutagenic call (Test System: AMES SALMONELLA TYPHIMURIUM, Strain/Indicator: TA100, Metabolic Activation: RAT, LIVER, S-9, AROCLOR 1254, Method: PREINCUBATION) was “inactive; negative”; the mutagenic call (Test System: AMES SALMONELLA TYPHIMURIUM, Strain/Indicator: TA1535, Metabolic Activation: HAMSTER, LIVER, S-9, AROCLOR 1254, Method: PREINCUBATION) was “inactive; negative”; the mutagenic call under setting [3] was “inactive; negative”; the mutagenic call (Test System: AMES SALMONELLA TYPHIMURIUM, Strain/Indicator: TA1535, Metabolic Activation: RAT, LIVER, S-9, AROCLOR 1254, Method: PREINCUBATION) was “inactive; negative”; the mutagenic call (Test System: AMES SALMONELLA TYPHIMURIUM, Strain/Indicator: TA1537, Metabolic Activation: HAMSTER, LIVER, S-9, AROCLOR 1254, Method: PREINCUBATION) is “inactive; negative”. For the same molecule, the mutagenic call reads like this: under setting [4], “inactive; negative”; (Test System: AMES SALMONELLA TYPHIMURIUM, Strain/Indicator: TA1537, Metabolic Activation: RAT, LIVER, S-9, AROCLOR 1254, Method: PREINCUBATION) “inactive; negative”.
On to `CNc1ncn(C)c1C(=O)N(C)N=O`, for which the mutagenic call under setting [5] is “inactive; negative”; the mutagenic call under setting [6] was “inactive; negative”; the mutagenic call under setting [7] is “inactive; negative”; the mutagenic call under setting [8] is “active; positive”; the mutagenic call (Test System: AMES SALMONELLA TYPHIMURIUM, Strain/Indicator: TA102, Metabolic Activation: NONE, Method: STANDARD PLATE) is “active; positive”; the mutagenic call (Test System: AMES SALMONELLA TYPHIMURIUM, Strain/Indicator: TA102, Metabolic Activation: S-9, Method: STANDARD PLATE) was “active; positive”. Further, the mutagenic call was “active; positive” (Test System: AMES SALMONELLA TYPHIMURIUM, Strain/Indicator: TA1535, Metabolic Activation: S-9, Method: STANDARD PLATE); “inactive; negative” (Test System: AMES SALMONELLA TYPHIMURIUM, Strain/Indicator: TA1537, Metabolic Activation: NONE, Method: STANDARD PLATE); “inactive; negative” (Test System: AMES SALMONELLA TYPHIMURIUM, Strain/Indicator: TA1537, Metabolic Activation: S-9, Method: STANDARD PLATE).
For the molecule `COc1ccc2c(c1)-c1nccc3cc(OC)c(O)c(c13)C2=O`, under “Test System: AMES SALMONELLA TYPHIMURIUM, Strain/Indicator: TA98, Metabolic Activation: RAT, LIVER, S-9, PHENOBARBITAL AND BETA-NAPHTHOFLAVONE, Method: PREINCUBATION”, the mutagenic call was “active; positive”.
As for `COc1ccc(-c2noc(CC(=O)O)c2-c2ccc(OC)cc2)cc1`, the mutagenic call reads like this: under setting [1], “inactive; negative”; (Test System: AMES SALMONELLA TYPHIMURIUM, Strain/Indicator: TA98, Metabolic Activation: RAT, LIVER, S-9, PHENOBARBITAL AND 5,6-BENZOFLAVONE, Method: PREINCUBATION) “inactive; negative”; under setting [2], “inactive; negative”; (Test System: AMES SALMONELLA TYPHIMURIUM, Strain/Indicator: TA100, Metabolic Activation: RAT, LIVER, S-9, PHENOBARBITAL AND 5,6-BENZOFLAVONE, Method: PREINCUBATION) “inactive; negative”; under setting [3], “inactive; negative”; (Test System: AMES SALMONELLA TYPHIMURIUM, Strain/Indicator: TA1535, Metabolic Activation: RAT, LIVER, S-9, PHENOBARBITAL AND 5,6-BENZOFLAVONE, Method: PREINCUBATION) “inactive; negative”. The mutagenic call under setting [4] is “inactive; negative”; the mutagenic call (Test System: AMES SALMONELLA TYPHIMURIUM, Strain/Indicator: TA1537, Metabolic Activation: RAT, LIVER, S-9, PHENOBARBITAL AND 5,6-BENZOFLAVONE, Method: PREINCUBATION) is “inactive; negative”; the mutagenic call (Test System: E. COLI, Strain/Indicator: WP2 UVRA, Metabolic Activation: NONE, Method: PREINCUBATION) is “inactive; negative”; the mutagenic call (Test System: E. COLI, Strain/Indicator: WP2 UVRA, Metabolic Activation: RAT, LIVER, S-9, PHENOBARBITAL AND 5,6-BENZOFLAVONE, Method: PREINCUBATION) was “inactive; negative”.
As to `O=[N+]([O-])C1=Cc2cccc3cccc(c23)O1`, the mutagenic call reads like this: under setting [5], “inactive; negative”; under setting [6], “inactive; negative”; under setting [7], “active; positive”; under setting [8], “inactive; negative”.
On to `COC(=O)C(Cl)CCC(Cl)CCCCCC(Cl)CCC(Cl)CCCCCl` (stereo unspecified), for which the mutagenic call by setting is: (Test System: AMES SALMONELLA TYPHIMURIUM, Strain/Indicator: TA97, Metabolic Activation: HAMSTER, LIVER, S-9, AROCLOR 1254 (10 OR 30%), Method: PREINCUBATION) “inactive; negative”; (Test System: AMES SALMONELLA TYPHIMURIUM, Strain/Indicator: TA97, Metabolic Activation: NONE, Method: PREINCUBATION) “inactive; negative”; (Test System: AMES SALMONELLA TYPHIMURIUM, Strain/Indicator: TA97, Metabolic Activation: RAT, LIVER, S-9, AROCLOR 1254 (10 OR 30%), Method: PREINCUBATION) “inactive; negative”; (Test System: AMES SALMONELLA TYPHIMURIUM, Strain/Indicator: TA98, Metabolic Activation: HAMSTER, LIVER, S-9, AROCLOR 1254 (10 OR 30%), Method: PREINCUBATION) “inactive; negative”; under setting [1], “inactive; negative”; (Test System: AMES SALMONELLA TYPHIMURIUM, Strain/Indicator: TA98, Metabolic Activation: RAT, LIVER, S-9, AROCLOR 1254 (10 OR 30%), Method: PREINCUBATION) “inactive; negative”. Also, the mutagenic call is “inactive; negative” (Test System: AMES SALMONELLA TYPHIMURIUM, Strain/Indicator: TA100, Metabolic Activation: HAMSTER, LIVER, S-9, AROCLOR 1254 (10 OR 30%), Method: PREINCUBATION); “inactive; negative” under setting [2]; “inactive; negative” (Test System: AMES SALMONELLA TYPHIMURIUM, Strain/Indicator: TA100, Metabolic Activation: RAT, LIVER, S-9, AROCLOR 1254 (10 OR 30%), Method: PREINCUBATION); “inactive; negative” (Test System: AMES SALMONELLA TYPHIMURIUM, Strain/Indicator: TA1535, Metabolic Activation: HAMSTER, LIVER, S-9, AROCLOR 1254 (10 OR 30%), Method: PREINCUBATION); “inactive; negative” under setting [3]; “inactive; negative” (Test System: AMES SALMONELLA TYPHIMURIUM, Strain/Indicator: TA1535, Metabolic Activation: RAT, LIVER, S-9, AROCLOR 1254 (10 OR 30%), Method: PREINCUBATION).
As to `C=C(C)C1CCC(=C)C2C3=C(C[C@@H](C)C3=O)C(=O)C(C)=C[C@@H]12` (stereo partly specified), the mutagenic call under setting [5] is “inactive; negative”; the mutagenic call (Test System: AMES SALMONELLA TYPHIMURIUM, Strain/Indicator: TA98, Method: STANDARD PLATE) was “inactive; negative”; the mutagenic call under setting [7] was “inactive; negative”; the mutagenic call (Test System: AMES SALMONELLA TYPHIMURIUM, Strain/Indicator: TA100, Method: STANDARD PLATE) was “inactive; negative”.
